In US20260224547A1, “COMPOSITIONS COMPRISING ANATABINE AND USES THEREOF” (Philip Morris Products S.A., priority 2021, published 2026):

What was measured:
[1] = test system: HEK-293, SH-SY5Y, primary human keratinocytes, THP-1 differentiated with PMA; experiment: Cell viability, CellTiterGlo (ATP content), used to select concentrations; assay type: cell-based; conditions: 24 hours of exposure; no more than 400 μM anatabine free base
NRF2 = NRF2 luciferase assay (NRF2/ARE reporter cell line); assay type: cell-based, human
Source text: A HEK-293 NRF2/ARE luciferase reporter cell line was acquired from Signosis (USA). According to Signosis, this NRF2 luciferase reporter stable cell line had been stably transfected with pTA-ARE-luciferase reporter vector, which contains 4 repeats of antioxidant response binding sites, a minimal promoter upstream of the firefly luciferase coding region, along with a hygromycin expression vector. Following selection, the hygromycin resistant clones were subsequently screened for TBHQ-induced luciferase activity. The clone with the highest fold induction was selected and expanded to produce this stable cell line.
4, 8 or 24 hours after stimulation of the NRF2 reporter cells luminescence was measured using a FLUOstar Omega plate reader.

**Q.** With `C1=CCC(c2cccnc2)NC1` (racemic) [anatabine, 1,2,3,6-Tetrahydro-2,3′-bipyridine] as the compound, how does the “cell viability (ATP content vs medium-only control)” value [1] read?
**A.** The value was at least 80%.

**Q.** And the “maximum log 2-fold change of NRF2 activation” value (NRF2; at 12.5 μM for sulforaphane, 125 μM and 250 μM for DMF, 1000 μM for anatabine)?
**A.** The value was “over 7”.

**Q.** And the “NRF2 luciferase reporter signal” value (NRF2; concentration series)?
**A.** Its value is “concentration-dependent rise”.
